Read-outs that look alike come from different tables or passages of the source. Each block holds one molecule with its values, some of them ahead of it. Ends that are not written are not given here.
Experiments:
human arginase I (hargI) [1] = target: T1, human arginase I (hargI) (Homo sapiens, UniProt P05089); experiment: Dose-response of ABH on hargI in presence/absence of REGNH, L-arginine metabolism; format: biochemical
T1 construct: TEV protease site and linker (N); made in house; host or cells: E. coli BL21 (DE3) RIL
T1 sequence (P05089 with tags, fused parts or gaps): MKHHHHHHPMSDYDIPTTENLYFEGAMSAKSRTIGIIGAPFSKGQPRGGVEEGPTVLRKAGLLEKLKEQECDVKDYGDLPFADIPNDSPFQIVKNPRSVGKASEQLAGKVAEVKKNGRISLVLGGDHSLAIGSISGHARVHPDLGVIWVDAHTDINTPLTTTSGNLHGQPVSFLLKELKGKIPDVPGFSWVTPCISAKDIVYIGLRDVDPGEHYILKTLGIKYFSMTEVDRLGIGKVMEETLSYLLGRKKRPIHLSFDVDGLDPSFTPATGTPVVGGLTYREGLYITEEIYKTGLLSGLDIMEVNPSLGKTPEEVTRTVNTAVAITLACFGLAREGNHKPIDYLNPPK

[2] = target: T2, human arginase I (wild-type hargI, His6-tagged) (Homo sapiens, UniProt P05089); experiment: MST binding assay, hargI
T2 construct: TEV protease site and linker (N); made in house; host or cells: E. coli BL21 (DE3) RIL
T2 sequence (P05089 with tags, fused parts or gaps): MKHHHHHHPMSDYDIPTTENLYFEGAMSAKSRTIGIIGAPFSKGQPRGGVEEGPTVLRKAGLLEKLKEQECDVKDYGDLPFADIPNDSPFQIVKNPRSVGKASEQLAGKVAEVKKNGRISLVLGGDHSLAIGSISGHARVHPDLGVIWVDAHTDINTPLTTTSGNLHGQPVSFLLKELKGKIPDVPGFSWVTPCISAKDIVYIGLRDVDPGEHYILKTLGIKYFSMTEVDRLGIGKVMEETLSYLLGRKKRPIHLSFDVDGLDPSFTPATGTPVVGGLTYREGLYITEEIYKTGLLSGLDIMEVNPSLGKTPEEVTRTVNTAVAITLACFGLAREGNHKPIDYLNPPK
Procedure: Microscale thermophoresis (MST)
MST measurements were performed on a Monolith NT.115 instrument (Nanotemper Technologies, GmbH). Purified His6-tagged hargI sample was labeled with the Monolith His-Tag Labeling Kit RED-tris-NTA (MO-L008) according to the protocol (Nanotemper Technologies, GmbH). All measurements were performed in triplicate in MST buffer (25 mM Tris-HCl pH 7.5, 125 mM NaCl, 1% Glycerol and 1 mM BME, 0.05% Tween-20) using standard capillaries (K002, Nanotemper Technologies, GmbH). Labeled hargI was used at a final concentration of 50 nM according to the manufacturer’s recommendations. All measurements were performed at 60% LED excitation power and 40% MST power, Laser-On time was 30 s, Laser-Off time 5 s. The peptide REGNH was titrated in 1:1 dilution starting at 2.82 μM. All binding reactions were incubated for 10 min at room temperature followed by centrifugation at 20,000 g before loading into the capillaries.
The ability of the synthetic peptide analogue (REGNH) to bind to wild-type hargI and II was examined using Microscale Thermophoresis (MST) (Nanotemper, GmbH). […] After 10 min incubation at room temperature the dose-response MST curve was measured, which yielded a clear binding curve with determined dissociation constant of 177 ± 50 μM for hargI, and 196 ± 25 μM for hargII (Fig. 2).

[3] = tested on: wild-type and truncated (terminating at Arg308 or Ala308) arginase I; settings: wild-type and truncated species terminating at Arg308 or Ala308, even at higher concentrations; ref [17]; cited from earlier work
From the text: (§1) A promising avenue in arginase inhibitors research is a structural feature that shared by all mammalian arginases – the S-shaped motif at the C-terminal. The functional significance of this motif is that it accounts for 54% of intersubunit contacts. In Human Arginase I (hargI) the S-shaped motif is comprised by residues 304–322, where Arg308 is thought to play the major role, as it forms a salt bridge with Glu262. In rat liver arginase I, Arg308 also forms an intermonomer salt bridge with Asp204 from an adjacent subunit. The importance of Arg308 is supported by the di ...

[4] = tested on: Arg308Ala mutant of human arginase I; settings: low concentrations of guanidinium chloride, ref [17], cited from earlier work
From the text: as §1, with “... || The aim of the described research is to examine the effect of the peptide analogue REGNH (residue 308–312), which comprises part of the S-shape motif from the C-terminal (residue 308–322) on hargI. A previous study has shown that the C terminal tail plays a critical role in retaining trimeric protein assembly, as well as in the cooperative response of arginase in L-arginine metabolism.” for “...”

human arginase I (hargI) [5] = target: T1, human arginase I (hargI); experiment: Enzymatic assay, L-arginine hydrolysis by hargI, colorimetric urea; format: biochemical; settings: called preliminary data, read-out: IC50 (abstract)
Procedure: (§2) The kinetic properties of hargI and II were tested according to previously reported methods with minor modifications. The Arginases activity was assessed by colorimetric measurement of produced urea. The assays were performed in 96-well plates (Greiner) using Assay buffer [100 mM Na-phosphate pH 7.4, 130 mM NaCl]. Final volume of each reaction was 60 μl, the final concentration of hargI and hargII was 50 nM in each well. Samples containing no hargI or hargII were used as negative control. The peptide inhibitor was added based on experiment setting, dose ranging from 20 mM to 9.8 μM. Each sample was pre-incubated for 30 min in a 37 °C shaking incubator (100 rpm) and the reactions were started by adding concentrated substrate buffer [Assay buffer supplemented with 100 mM L-arginine, 500 mM Glycine and 1.25 mM MnCl2]. Reactions were performed in a shaking incubator at 37 °C and quenched after 1 h using a Stop mix. The Stop mix consisted of two volumes of freshly prepared solution A [Antipyrine/ H2SO4 reagent: 5 g/L of antipyrine(1,5-dimethyl-2-phenyl-3-pyrazolone) in 50%(v/v) sulfuric acid] and one volume solution B [Oxime reagent: 0.8 g 2,3-Butanedione monoxime in 100 ml of 5%(v/v) acetic acid]. […] The color turns to brown and changes in optical density (OD) at 466 nm reflecting the production of urea were quantified using the Synergy H1 Hybrid Reader (BioTek).

human arginase I (hargI) [6] = target: T1, human arginase I (hargI); experiment: Kinetic assay of L-arginine metabolism in absence/presence of peptide; format: biochemical; settings: 1 mM peptide REGNH, 40 mM L-arginine
Procedure: as §2, with “(BioTek). […]” for “(BioTek).”

[7] = target: T3, human arginase II (hargII) (Homo sapiens, UniProt P78540); experiment: Enzymatic assay, L-arginine hydrolysis by hargII, colorimetric urea; format: biochemical; settings: called preliminary data, read-out: IC50 (abstract)
T3 construct: The human arginase II (aa23-354, 38.3kD) fused to a His6-tag at the N-terminal; purchased USBiological Life Science, Salem, USA
T3 sequence (P78540 23-354): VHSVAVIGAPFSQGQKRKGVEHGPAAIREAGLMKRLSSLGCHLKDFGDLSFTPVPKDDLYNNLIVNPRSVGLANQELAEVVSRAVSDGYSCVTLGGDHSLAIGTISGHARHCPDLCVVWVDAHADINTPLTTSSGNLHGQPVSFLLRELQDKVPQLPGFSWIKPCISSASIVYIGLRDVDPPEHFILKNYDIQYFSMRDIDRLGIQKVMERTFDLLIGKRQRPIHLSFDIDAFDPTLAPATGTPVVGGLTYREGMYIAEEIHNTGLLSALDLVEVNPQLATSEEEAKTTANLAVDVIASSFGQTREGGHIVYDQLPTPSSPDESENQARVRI
Procedure: The human arginase II (aa23-354, 38.3kD) fused to a His6-tag at the N-terminal was purchased and supplied as a liquid aliquot (20 mM Tris-HCl, pH 8.0, 10% (v/v) glycerol) at −20 °C (USBiological Life Science, Salem, USA). This stock was thaw on ice, followed by high speed centrifuging before diluting to certain concentration for activity assay.
as §2, with “MnCl2].” for “MnCl2]. Reactions were performed in a shaking incubator at 37 °C and quenched after 1 h using a Stop mix. The Stop mix consisted of two volumes of freshly prepared solution A [Antipyrine/ H2SO4 reagent: 5 g/L of antipyrine(1,5-dimethyl-2-phenyl-3-pyrazolone) in 50%(v/v) sulfuric acid] and one volume solution B [Oxime reagent: 0.8 g 2,3-Butanedione monoxime in 100 ml of 5%(v/v) acetic acid].”

human arginase I [8] = target: T4, human arginase I (human, UniProt P05089 1-322, RED-tris-NTA dye on the His6-tag (Monolith His-Tag Labeling Kit RED-tris-NTA) in the MST assay); experiment: MST; Monolith NT.115; His6-tagged arginase labeled with RED-tris-NTA at 50 nM, peptide REGNH titrated in 1:1 dilution; 25 mM Tris-HCl pH 7.5, 125 mM NaCl, 1% glycerol, 1 mM BME, 0.05% Tween-20; 10 min incubation at room temperature; triplicate; settings: both partners purified
T4 construct: human arginase I, full-length gene amplified from a commercial template plasmid (dnasu.org), cloned in pETM11; His6-tag and TEV protease site at the N-terminus; A TEV protease site lies between the His6-tag and the protein; no cleavage is described; also called hargI; hArg1; source: E. coli BL21 (DE3) RIL, purified (Ni-NTA, SEC); not shown: His6, N-terminal, kept
T4 sequence (looked up): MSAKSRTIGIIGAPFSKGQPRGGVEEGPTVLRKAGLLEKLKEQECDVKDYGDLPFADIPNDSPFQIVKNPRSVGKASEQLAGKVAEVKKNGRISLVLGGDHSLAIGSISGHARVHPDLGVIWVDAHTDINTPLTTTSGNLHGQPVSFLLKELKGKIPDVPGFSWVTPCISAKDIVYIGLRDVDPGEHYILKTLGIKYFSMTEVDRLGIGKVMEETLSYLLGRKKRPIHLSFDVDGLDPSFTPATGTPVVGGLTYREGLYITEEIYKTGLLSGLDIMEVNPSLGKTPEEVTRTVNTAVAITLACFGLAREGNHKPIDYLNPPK

[9] = target: T5, human arginase II (aa23-354, 38.3kD) (human, UniProt P78540 23-354, RED-tris-NTA dye labeled in the MST assay); experiment: as above; settings: both partners purified
T5 construct: human arginase II, aa23-354, 38.3kD, fused to a His6-tag at the N-terminal; also called hargII; source: bought: USBiological Life Science, Salem, USA; not shown: His6, N-terminal, kept
T5 sequence (looked up): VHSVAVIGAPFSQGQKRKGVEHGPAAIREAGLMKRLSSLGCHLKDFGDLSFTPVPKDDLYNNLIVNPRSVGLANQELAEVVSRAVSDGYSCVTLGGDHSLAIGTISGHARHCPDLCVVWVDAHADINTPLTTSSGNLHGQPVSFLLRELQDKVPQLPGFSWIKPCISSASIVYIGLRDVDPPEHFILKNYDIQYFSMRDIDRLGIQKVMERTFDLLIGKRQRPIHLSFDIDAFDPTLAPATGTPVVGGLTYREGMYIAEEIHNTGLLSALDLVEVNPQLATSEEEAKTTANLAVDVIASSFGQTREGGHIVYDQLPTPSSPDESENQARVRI

human arginase I [10] = target: T4, human arginase I; experiment: cell-based or functional assay
[11] = target: T5, human arginase II (aa23-354, 38.3kD); experiment: cell-based or functional assay

Molecule: N[C@@H](CCCCB(O)O)C(=O)O [ABH, 2-(S)-amino-6-boronohexanoic acid]
IC50 (human arginase I (hargI) [1]; ABH on hargI, printed in parentheses after 'those of the apo-enzyme', the comparison is with hargI + 1 mM REGNH): 1 ± 0.03 µM | inhibition of hargI by ABH in presence of REGNH compared with apo-enzyme (human arginase I (hargI) [1]; hargI supplemented with 1 mM peptide REGNH): comparable inhibition constants to those of the apo-enzyme | Kd ([2]; MST, ABH to hargI, MST buffer pH 7.5): ~0.6 µM | binding to hargI ([2]; dose-dependent MST assay): strong binding

Molecule: Cl.N=C(N)N [guanidinium chloride]
response of wild-type and truncated species to Gdn+ [3]: not responsive | activity of Arg308Ala mutant with Gdn+ [4]: significantly increased activity | trimeric assembly and substrate cooperativity of Arg308Ala mutant with Gdn+ [4]: restored the trimeric assembly and substrate cooperativity | activity of Arg308Ala mutant with Gdn+ ([4]; listed as Gdn^+): significantly increased

Further lines, results first:

IC50 (human arginase I (hargI) [5]): 2400 ± 300 µM | lowering of activity with respect to apo-enzyme (human arginase I (hargI) [6]): ≈ 15% | IC50 [7]: 1800 ± 100 µM
Molecule: REGNH [REGNH]

Kd (human arginase I [8]): 177 ± 50 µM | Kd [9]: 196 ± 25 µM | inhibition of hargI enzymatic activity (colorimetric measurement of urea from L-arginine), peptide 9.8 μM to 20 mM; IC50 (human arginase I [10]): 2400 µM | inhibition of hargII enzymatic activity (colorimetric measurement of urea from L-arginine), peptide 9.8 μM to 20 mM; IC50 [11]: 1800 µM
B1: synthetic peptide REGNH (peptide)
peptide: REGNH
notes: residues 308-312 of human arginase I, part of the S-shape motif of the C-terminal; Nothing is said of modified ends; also called peptide analogue; REGNH C-terminus analogue peptide; source: synthetic peptide; bought: Biomatik and TopPeptides, Shanghai
